{"source": "patent US10925872B2", "about": "“Methods of treating cochlear synaptopathy” (PIPELINE THERAPEUTICS, INC., priority 2016, dated 2021)", "key": {"[1]": {"system": "inner hair cell synapses", "experiment": "Guinea pig kanamycin-induced cochlear synaptopathy model", "assay_type": "in vivo, Hartley guinea pigs", "conditions": "kanamycin 400 mg/kg i.p. 10 days; 30 μl of 2% in vehicle bilateral transtympanic on day 15; three months after", "description": "Beginning on day 0, male Hartley guinea pigs (450-500 g) were deafened by intraperitoneal administration of kanamycin (400 mg/kg) dosed once daily for 10 consecutive days. […] A loss of synapse density in this model has not been described previously. On day 15, animals received bilateral transtympanic injections of vehicle (30 μl), crystalline Compound I (30 μl of 2% in vehicle), or crystalline Compound II (30 μl of 2% in vehicle). Three months after administration of test article, animals were euthanized and cochleae collected and stained with phalloidin and antibodies against CtBP2 and NF-200. The number of CtBP2+/NF-200+ synapses were quantified and normalized to the number of inner hair cells to obtain synapse density. Synapse density was decreased with kanamycin treatment at 14.7 and 17.3 mm from the apex of the cochlea, which in the guinea pig cochlea, tonally correlates with 16 and 32 kHz, respectively, according to the Greenwood frequency map.\nVehicle (PF10) and GSI in vehicle used in Examples 6 and 7 were prepared as follows: To 129 mL sterile water was added, 0.96 g sodium chloride, 0.59 g sodium phosphate dibasic, and 0.14 g sodium phosphate monobasic. The solution was stirred at ambient temperature and 25.6 g poloxamer 407 was added and stirred overnight to yield a clear solution. […]"}, "[2]": {"system": "DCC α-fragment", "experiment": "DCC α-fragment Western blot, mouse ex vivo cochlea (spiral ganglion)", "assay_type": "cell-based, CD-1 mice", "conditions": "postnatal day 21 cochlea, 1 μM, 24 h, normalized to actin", "description": "Previous reports have shown that DCC (deleted in colorectal cancer) is a γ-secretase substrate. DCC is the receptor for the guidance molecule, netrin, and its activation results in neuronal axon outgrowth, axon turning and synapse formation. Embryonic spinal cords of presenilin knockout mice treated display persistent expression of the DCC α-fragment; these fragments can enhance netrin-DCC mediated events, including axon outgrowth in cultured motor neurons (Taniguchi et al., 2003, J. Biol. Chem., 278:30425-30428, and Bai et al., 2011, Cell, 144(1): 106-18). The following studies were performed using GSM, “RO”, as well as the GSI, Compound I. RO has the structure:\nCochleae were obtained from postnatal day 21 CD-1 mice. An opening was made in the bone at the cochlear apex to allow for fluid flow. Cochlea were incubated in serum-free growth media (DMEM-F12, N2 and B27 serum supplements, penicillin/streptomycin) with 1 μM RO or 1 μM Compound I. After 24 h, spiral ganglion were isolated and processed for Western blot. Membranes were probed with a DCC antibody recognizing the intracellular domain and bands were normalized to actin."}, "[3]": {"system": "inner hair cell synapses", "experiment": "Mouse noise-induced cochlear synaptopathy, local GSI (synapse counts, ABR wave I)", "assay_type": "in vivo, CBA/J mice", "description": "Two separate experiments were conducted using this protocol: in Experiment 1 (FIG. 7A) compound I treatment was compared to NT3, in Experiment 2 (FIG. 7B, 7C and FIG. 8) we evaluated two dose levels of compound I. For both experiments female CBA/J mice 6 weeks old (The Jackson Laboratory, Bar Harbor, Me.) were exposed, awake and unrestrained, to filtered octave band noise (8-16 kHz) for 2 hours at 98 dB SPL in a reverberant sound-exposure box. Mice were placed in a custom designed wire cage sitting atop high density 4-inch foam with the wire floor 1-inch above the foam. The noise waveform was generated and filtered with a TDT RZ6 pre-amplifier (Tucker Davis Technologies, Alachua, Fla.), amplified by a Crown XLS1000 power amplifier, and delivered by JBL 2426H Compression Driver coupled to a JBL 2730A horn. Sound levels were verified in the center of the cage using a ¼-inch condenser microphone (PCB Piezotronics, Depew, N.Y.) before each exposure. ABR was collected 1 and 14 days post-noise exposure to ensure a temporary threshold shift with no permanent threshold shift. Seventeen days after noise, mice were dosed bilaterally with crystalline Compound I, (2% in PF10*) or NT3 (2 μL of 150 ng/μL) (Experiment 1); crystalline Compound I (2% and 0.2% in PF10) (Experiment 2); and ABR was collected 14 days post-dose. Vehicle control animals received bilateral injections of PF10. Age matched naïve control animals were also used.\nABR Wave I analysis: The auditory brain-stem response (ABR) waveform comprises a set of waves (labeled I-V). Mice were anesthetized with ketamine and xylazine. ABR waveforms were collected using Tucker-Davis Technologies RZ6 Auditory Processor. The stimuli used were 5 ms tone (2 ms cos 2 rise-fall) at frequencies from 4, 8, 16, 24, and 32 kHz delivered in alternating polarity at 21/s. […] Wave I peak amplitudes were determined by extracting the raw waveform voltage averages and determining the window or latency at which the peak of wave I appears. […]"}, "[4]": {"conditions": "both 0.2% and 2% dosages in PF10, bilateral, 17 days after noise, 14 days post-dose"}}}
{"compound": "C[C@H](OC(=O)NCC(F)(F)C(F)(F)F)C(=O)N[C@@H]1C(=O)Nc2ccccc2-c2ccccc21", "note": "[Compound I, (2,2,3,3,3-pentafluoropropyl)-carbamic acid (S)-1-((S)-6-oxo-6,7-dihydro-5H-dibenzo[b,d]azepin-7-ylcarbamoyl) ethyl ester]", "values": [{"measurement": "synapse density (CtBP2+/NF-200+ synapses per inner hair cell)", "setting": "[1]", "result": "increased"}, {"measurement": "DCC α-fragment level compared to the vehicle group", "setting": "[2]", "result": "Increase in α-fragment"}, {"measurement": "synapse recovery in the mid 1 region (16-24 kHz)", "setting": "[3]; [4]", "result": "nearly complete synapse recovery"}, {"measurement": "synapse recovery in the mid 2 region (24-32 kHz)", "setting": "[3]; [4]", "result": "nearly complete synapse recovery"}, {"measurement": "ABR wave I amplitudes", "setting": "[3]; local administration following noise induced synaptopathy", "result": "improved wave I amplitudes"}]}
